Test results from patent US4551479A, “Compounds with anti-convulsive properties” (Akzo N.V., priority 1983, dated 1985).
Counter-ions that a name gives are not always drawn. Like-named read-outs stand apart in the source and are kept apart here.

Assays:
[1] = tested on: Pentylenetetrazole (PTZ) cramp condition; experiment: PTZ (pentylenetetrazole) test (anti-convulsive properties); assay type: in vivo; conditions: ip, read-out: Anti-convulsive properties, PTZ test ED50 i.p.
Text: ^(2) Pentylenetetrazole (i.e. PTZ) directly activates the nerve
endings, leading to a cramp condition.

[2] = tested on: tonic convulsion; experiment: Electroshock test (anti-convulsive properties); assay type: in vivo; conditions: ip, read-out: Anti-convulsive properties, Electroshock test ED200 i.p.
Text: ^(1) The ED200 is the dose of the test compound (in mg/kg) which
necessitates a 100% increase of the current intensity to bring about a
tonic convulsion in 50% of the test animals.

[3] = Rotarod (neurotoxicity and sedation); conditions: ip
[4] = Shuttle box (neurotoxicity and sedation); conditions: ip
[5] = tested on: benzodiazepine receptors; experiment: Antagonism of anti-convulsive effect by benzodiazepine antagonist Ro 15-1788; assay type: in vivo; conditions: administration of Ro 15-1788

Row | SMILES | ED50 [1] [mg/kg] | ED200 [2] [mg/kg] | TD50 [3] [mg/kg] | TD50 [4] [mg/kg] | Effect of benzodiazepine antagonist (Ro 15-1788) on the anti-convulsive effect [5] | ED50 ([1]; pentylenetetrazole) [mg/kg] | ED200 ([2]; dose necessitating a 100% increase of current intensity to bring about tonic convulsion in 50% of test animals) [mg/kg]
1 | CN(C)C1C2C=CCC1c1ccccc1C2 (stereo not drawn) | 10 | 11 | 70 | > 46 | – | – | –
2 | CN1C(=O)CN=C(c2ccccc2)c2cc(Cl)ccc21 [diazepam] | 0.5 | 14 | – | – | completely counteracted | – | –
3 | O=C1NC(=O)C(c2ccccc2)(c2ccccc2)N1 [diphenyl hydantoin] | – | – | 100 | 100 | – | 22 | 15
4 | CCCC(CCC)C(=O)O [sodium salt of valproic acid] | 30 | 180 | 230 | 350 | – | – | –
